Experimental data as given in ChEMBL document CHEMBL4699433, “Rational design, synthesis and testing of novel tricyclic topoisomerase inhibitors for the treatment of bacterial infections part 2” (RSC Med Chem, 2020).
Converted amounts (≈) assume the structure as drawn.

Columns and labels:
Staphylococcus aureus = experiment: Antibacterial activity against wild type methicillin-sensitive Staphylococcus aureus ATCC 29213 assessed as reduction in bacterial growth by CLSI based broth microdilution method; type: functional
[1] = Thermodynamic solubility of the compound; type: physicochemical; details: read-out: Therm_solubility
Haemophilus influenzae = experiment: Antibacterial activity against Haemophilus influenzae ATCC 49247 assessed as reduction in bacterial growth by CLSI based broth microdilution method; type: functional
Escherichia coli = experiment: Antibacterial activity against Escherichia coli ATCC 25922 assessed as reduction in bacterial growth by CLSI based broth microdilution method; type: functional
Streptococcus pneumoniae = experiment: Antibacterial activity against Streptococcus pneumoniae ATCC 49619 assessed as reduction in bacterial growth by CLSI based broth microdilution method; type: functional

SMILES | MIC (Staphylococcus aureus) [µg/mL] | solubility thermodynamic [1] [µg/mL] | MIC (Haemophilus influenzae) [µg/mL] | MIC (Escherichia coli) [µg/mL] | MIC (Streptococcus pneumoniae) [µg/mL]
Cc1nc2c(=O)n(C3CC3)c3c(Cl)c(N4CC5CCCNC5C4)c(F)cc3c2o1 (stereo not drawn) | 2 (≈ 4.8 µM) | 1060 (≈ 2550 µM) | 8 (≈ 19.2 µM) | 2 (≈ 4.8 µM) | 4 (≈ 9.59 µM)
Cc1nc2c(=O)n(C3CC3)c3cc(N4CCC(O)C4)c(F)cc3c2o1 (stereo not drawn) | 32 (≈ 93.2 µM) | – | 4 (≈ 11.6 µM) | 64 (≈ 186 µM) | 64 (≈ 186 µM)
Cc1nc2c(=O)n(C3CC3)c3cc(N4CC5CNCC5C4)c(F)cc3c2o1 (stereo not drawn) | 2 (≈ 5.43 µM) | 1200 (≈ 3240 µM) | 2 (≈ 5.43 µM) | 4 (≈ 10.9 µM) | 4 (≈ 10.9 µM)
Cc1nc2c(=O)n(C3CC3)c3cc(N4CCC(N)C4)c(F)cc3c2o1 (stereo not drawn) | 2 (≈ 5.84 µM) | – | 1 (≈ 2.92 µM) | 1 (≈ 2.92 µM) | 8 (≈ 23.4 µM)
Cc1nc2c(=O)n(C3CC3)c3c(Cl)c(N4CCC(CN(C)C)C4)c(F)cc3c2o1 (stereo not drawn) | 1 (≈ 2.39 µM) | 1190 (≈ 2850 µM) | 16 (≈ 38.2 µM) | 4 (≈ 9.55 µM) | 2 (≈ 4.77 µM)
